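Briefly, cells in 96-well plates were exposed to five compound concentrations for 48 h, and endpoints were estimated by linear interpolation. GI50 = concentration required for 50% inhibition of growth. TGI is the concentration that stops growth completely.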
Tests used:
Assay in all cases: NCI tumour cell line growth inhibition, 48 h
SNB-75 CNS = tested on: SNB-75 CNS
HT29 colon = tested on: HT29 colon
OVCAR-8 ovarian = tested on: OVCAR-8 ovarian
NCI-H522 lung = tested on: NCI-H522 lung
SNB-19 CNS = tested on: SNB-19 CNS
HOP-62 NSCLC = tested on: HOP-62 NSCLC
SN12C renal = tested on: SN12C renal
UO-31 renal = tested on: UO-31 renal
OVCAR-3 ovarian = tested on: OVCAR-3 ovarian
CAKI-1 renal = tested on: CAKI-1 renal
KM12 colon = tested on: KM12 colon
NCI-H23 lung = tested on: NCI-H23 lung
K-562 leukemia = tested on: K-562 leukemia
MOLT-4 leukemia = tested on: MOLT-4 leukemia
IGROV1 ovarian = tested on: IGROV1 ovarian
SF-268 CNS = tested on: SF-268 CNS
HS 578T breast = tested on: HS 578T breast
OVCAR-4 ovarian = tested on: OVCAR-4 ovarian
786-0 renal = tested on: 786-0 renal
DU-145 prostate = tested on: DU-145 prostate
HCT-116 colon = tested on: HCT-116 colon
T-47D breast = tested on: T-47D breast
NCI/ADR-RES ovarian = tested on: NCI/ADR-RES ovarian
NCI-H460 lung = tested on: NCI-H460 lung
A498 renal = tested on: A498 renal
HL-60(TB) leukemia = tested on: HL-60(TB) leukemia
UACC-257 melanoma = tested on: UACC-257 melanoma
MDA-MB-435 = tested on: MDA-MB-435
M14 melanoma = tested on: M14 melanoma
ACHN renal = tested on: ACHN renal
SF-295 CNS = tested on: SF-295 CNS
PC-3 prostate = tested on: PC-3 prostate
MDA-MB-231 breast = tested on: MDA-MB-231 breast
OVCAR-5 ovarian = tested on: OVCAR-5 ovarian
COLO 205 colon = tested on: COLO 205 colon
CCRF-CEM leukemia = tested on: CCRF-CEM leukemia
SK-MEL-5 melanoma = tested on: SK-MEL-5 melanoma
UACC-62 melanoma = tested on: UACC-62 melanoma
A549 NSCLC = tested on: A549 NSCLC
SK-OV-3 ovarian = tested on: SK-OV-3 ovarian
MALME-3M melanoma = tested on: MALME-3M melanoma
SK-MEL-28 melanoma = tested on: SK-MEL-28 melanoma
MCF7 breast = tested on: MCF7 breast
HCC-2998 colon = tested on: HCC-2998 colon
SW-620 colon = tested on: SW-620 colon
TK-10 renal = tested on: TK-10 renal
SF-539 CNS = tested on: SF-539 CNS
RXF 393 renal = tested on: RXF 393 renal
NCI-H226 lung = tested on: NCI-H226 lung
HCT-15 colon = tested on: HCT-15 colon
BT-549 breast = tested on: BT-549 breast
RPMI-8226 leukemia = tested on: RPMI-8226 leukemia
SR leukemia = tested on: SR leukemia

`COc1ccc(-c2nsc3c2NC(=O)CC3c2ccc3c(c2)OCO3)cc1` (stereo unspecified) gave a GI50 (SNB-75 CNS) of 1.49 µM, a TGI (SNB-75 CNS) of 9.97 µM and a GI50 (HT29 colon) of 0.414 µM. It also gave a TGI (HT29 colon) of 11.3 µM, a GI50 (OVCAR-8 ovarian) of 3.04 µM and a TGI (OVCAR-8 ovarian) greater than 100 µM. For the same compound, the GI50 (NCI-H522 lung) was 0.464 µM, the TGI (NCI-H522 lung) was 3.57 µM and the GI50 (SNB-19 CNS) was 48.7 µM. The TGI (SNB-19 CNS) was greater than 100 µM, the GI50 (HOP-62 NSCLC) was 1.92 µM and the TGI (HOP-62 NSCLC) was greater than 100 µM. The GI50 (SN12C renal) was 2.55 µM, the TGI (SN12C renal) was greater than 100 µM and the GI50 (UO-31 renal) was 5.09 µM. The TGI (UO-31 renal) was greater than 100 µM, the GI50 (OVCAR-3 ovarian) was 0.874 µM and the TGI (OVCAR-3 ovarian) was 10.4 µM. For the same compound, the GI50 (CAKI-1 renal) was 0.852 µM, the TGI (CAKI-1 renal) was greater than 100 µM and the GI50 (KM12 colon) was 0.645 µM. It also gave a TGI (KM12 colon) greater than 100 µM, a GI50 (NCI-H23 lung) of 3.2 µM and a TGI (NCI-H23 lung) greater than 100 µM. For the same compound, the GI50 (K-562 leukemia) was 0.408 µM, the TGI (K-562 leukemia) was greater than 100 µM and the GI50 (MOLT-4 leukemia) was 1.29 µM. It also gave a TGI (MOLT-4 leukemia) of 18.7 µM, a GI50 (IGROV1 ovarian) of 2.61 µM and a TGI (IGROV1 ovarian) greater than 100 µM. The GI50 (SF-268 CNS) was 6.44 µM, the TGI (SF-268 CNS) was greater than 100 µM and the GI50 (HS 578T breast) was 2.06 µM. For the same compound, the TGI (HS 578T breast) was 54.5 µM, the GI50 (OVCAR-4 ovarian) was 6.03 µM and the TGI (OVCAR-4 ovarian) was greater than 100 µM. The GI50 (786-0 renal) was 3.24 µM, the TGI (786-0 renal) was greater than 100 µM and the GI50 (DU-145 prostate) was 2.78 µM. The TGI (DU-145 prostate) was 53.1 µM, the GI50 (HCT-116 colon) was 0.574 µM and the TGI (HCT-116 colon) was greater than 100 µM. The GI50 (T-47D breast) was 0.724 µM, the TGI (T-47D breast) was greater than 100 µM and the GI50 (NCI/ADR-RES ovarian) was 0.524 µM. It also gave a TGI (NCI/ADR-RES ovarian) of 6.12 µM, a GI50 (NCI-H460 lung) of 0.498 µM and a TGI (NCI-H460 lung) greater than 100 µM. It also gave a GI50 (A498 renal) of 1.05 µM, a TGI (A498 renal) of 7.05 µM and a GI50 (HL-60(TB) leukemia) of 0.579 µM. It also gave a TGI (HL-60(TB) leukemia) of 8.32 µM, a GI50 (UACC-257 melanoma) of 10.8 µM and a TGI (UACC-257 melanoma) greater than 100 µM. It also gave a GI50 (MDA-MB-435) of 0.219 µM, a TGI (MDA-MB-435) of 0.539 µM and a GI50 (M14 melanoma) of 0.715 µM. It also gave a TGI (M14 melanoma) greater than 100 µM, a GI50 (ACHN renal) of 3.14 µM and a TGI (ACHN renal) greater than 100 µM. It also gave a GI50 (SF-295 CNS) of 1.92 µM, a TGI (SF-295 CNS) of 25.9 µM and a GI50 (PC-3 prostate) of 2.01 µM. The TGI (PC-3 prostate) was greater than 100 µM, the GI50 (MDA-MB-231 breast) was 1.13 µM and the TGI (MDA-MB-231 breast) was 11.6 µM. The GI50 (OVCAR-5 ovarian) was 3.19 µM, the TGI (OVCAR-5 ovarian) was greater than 100 µM and the GI50 (COLO 205 colon) was 0.627 µM. For the same compound, the TGI (COLO 205 colon) was 3.72 µM, the GI50 (CCRF-CEM leukemia) was 1.09 µM and the TGI (CCRF-CEM leukemia) was 8.49 µM. For the same compound, the GI50 (SK-MEL-5 melanoma) was 1.46 µM, the TGI (SK-MEL-5 melanoma) was 42.2 µM and the GI50 (UACC-62 melanoma) was 1.21 µM. For the same compound, the TGI (UACC-62 melanoma) was greater than 100 µM, the GI50 (A549 NSCLC) was 0.841 µM and the TGI (A549 NSCLC) was greater than 100 µM. It also gave a GI50 (SK-OV-3 ovarian) of 2.33 µM, a TGI (SK-OV-3 ovarian) greater than 100 µM and a GI50 (MALME-3M melanoma) of 0.77 µM. The TGI (MALME-3M melanoma) was greater than 100 µM, the GI50 (SK-MEL-28 melanoma) was 5.28 µM and the TGI (SK-MEL-28 melanoma) was greater than 100 µM. The GI50 (MCF7 breast) was 0.367 µM, the TGI (MCF7 breast) was greater than 100 µM and the GI50 (HCC-2998 colon) was 1.6 µM. It also gave a TGI (HCC-2998 colon) of 6.37 µM, a GI50 (SW-620 colon) of 0.514 µM and a TGI (SW-620 colon) greater than 100 µM. The GI50 (TK-10 renal) was 8.25 µM, the TGI (TK-10 renal) was greater than 100 µM and the GI50 (SF-539 CNS) was 1.05 µM. The TGI (SF-539 CNS) was 3.7 µM, the GI50 (RXF 393 renal) was 1.38 µM and the TGI (RXF 393 renal) was 7.88 µM. The GI50 (NCI-H226 lung) was 7.28 µM, the TGI (NCI-H226 lung) was greater than 100 µM and the GI50 (HCT-15 colon) was 0.493 µM. For the same compound, the TGI (HCT-15 colon) was greater than 100 µM, the GI50 (BT-549 breast) was 2.54 µM and the TGI (BT-549 breast) was greater than 100 µM. It also gave a GI50 (RPMI-8226 leukemia) of 2.51 µM, a TGI (RPMI-8226 leukemia) greater than 100 µM and a GI50 (SR leukemia) of 0.401 µM. For the same compound, the TGI (SR leukemia) was 39.3 µM.
